These results are taken from PMC7902330, “Pharmacokinetic study of traditional Japanese Kampo medicine shimotsuto used to treat gynecological diseases in rats” (Journal of Natural Medicines, 2021).

Like-named read-outs stand apart in the source and are kept apart here.

Data set [1] in a line: Nontargeted LC–HRMS detection of ingredients in rat plasma after oral administration of each constituent crude drug. Conditions: n = 2.
Protocol: The rats were fasted for 16 h and then orally administered Angelicae Acutilobae Radix, Paeoniae Radix, Rehmanniae Radix, or Cnidii Rhizoma extract powder suspended in distilled water at a dosage of 1 g/10 mL/kg. […] The two sampling points (1 and 10 h) were set to extensively explore both fast- and slow-absorbing ingredients. The blood samples were centrifuged at 1700×g for 15 min at 4 °C to obtain plasma, and the plasma samples were stored at less than − 75 °C until LC–HRMS analysis.
Before LC–HRMS analysis, the plasma samples were deproteinized using methanol as follows: 100 µL of plasma sample was mixed with 700 µL of methanol and then vortexed for 2 min. After centrifugation at 7000×g for 5 min at 4 °C, the supernatant was collected and then dried using a centrifugal evaporator, dissolved the dried residue in 80 μL of the initial mobile phase of LC, and recentrifuged at 7000×g for 5 min at 4 °C. Finally, a 5 μL aliquot of the supernatant was injected into the LC–HRMS system and analyzed in both positive and negative ion modes.
We interfaced the Acquity Ultra-Performance Liquid Chromatography System (Waters) to a Xevo G2-XS quadrupole time-of-flight MS system (Waters) equipped with an electrospray ionization probe in sensitivity mode. All ions within m/z = 50–1000 were acquired by the MS^E method (data-independent acquisition). […] We created two acquisition functions with different collision energies: a low-energy function with 6 eV collision energy and a high-energy function with 15–40 eV collision energy. The mass spectrometer resolution was set at more than 20,000.
Data set [2] in a line: Pharmacokinetics of ingredients in rat plasma after oral administration of shimotsuto (targeted LC–MS/MS). Format: in vivo. Conditions: in vivo. From the text: The plasma levels of nine ingredients were quantified using quantitative (targeted) analysis. Among them, seven ingredients (catalpol, paeoniflorin, albiflorin, senkyunolide A, butylphthalide, ferulic acid, and ligustilide) are candidate active ingredients in shimotsuto (Table 1). Two ingredients (bergapten and 8-debenzoylpaeoniflorin) are shimotsuto ingredients which were detected and identified in shimotsuto-treated rat plasma using nontargeted LC–HRMS analysis. The nine ingredients were quantified by collecting plasma samples at 0–24 h after shimotsuto administration, pretreating with the following procedures, and then analyzing by targeted LC–MS/MS using selected reaction-monitoring mode. The LC–MS/MS system was composed of a triple quadruple MS (TripleQuad6500; SCIEX, Framingham, MA, USA) and an Agilent 1290 Infinity LC system (Agilent Technologies, Santa Clara, CA, USA). For highly sensitive and selective quantitative (targeted) analysis of each compound, we preliminarily examined optimal pretreatment and analytical LC–MS/MS methods (e.g., MS parameters and LC conditions).
For quantification of catalpol, paeoniflorin, albiflorin, ferulic acid, and senkyunolide A in plasma, 100 µL of plasma sample was mixed with 20 µL of methanol (or working solution) and 20 µL of internal standard (niflumic acid or swertiamarin) and pretreated by deproteinization using 500 µL of acetonitrile. […] Finally, the dried residue was dissolved in 60 µL of the specific HPLC mobile phase used for analysis and then a 10 μL aliquot was injected into the LC–MS/MS system.
For quantification of ligustilide and butylphthalide in plasma, 200 µL of plasma sample was mixed with 40 µL of methanol (or working solution) and 40 µL of internal standard (imperatorin) and centrifuged at 15000×g for 10 min at 4 °C, the whole volume of supernatant was collected and subsequently pretreated by solid-phase extraction using Oasis HLB Extraction Cartridge (Waters, Milford, MA, USA). The acetonitrile elutes were collected and then dried under a steam of nitrogen gas. Finally, the dried residue was dissolved in 70 µL of the specific HPLC mobile phase and injected 20 µL into the LC–MS/MS system.
For quantification of bergapten in plasma, 100 µL of plasma sample was mixed with 20 µL of methanol (or working solution) and 20 µL of internal standard (niflumic acid) and pretreated by solid-phase extraction using an Oasis HLB 96-well µElution plate. Next, the mixied elutes of acetonitrile and isopropyl alcohol (1:1, v/v) were collected and then dried under a steam of nitrogen gas. Finally, the dried residue was dissolved in 60 µL of the specific HPLC mobile phase and injected 10 µL into the LC–MS/MS system.
For quantification of 8-debenzoylpaeoniflorin in plasma, 100 µL of plasma sample was mixed with 20 µL of methanol (or working solution) and 20 µL of internal standard (niflumic acid) and pretreated by liquid–liquid extraction using 500 µL of ethyl acetate. […] The dried residue was dissolved in 60 µL of the specific HPLC mobile phase and injected 10 µL into the LC–MS/MS system.
In addition, pharmacokinetic parameters of the shimotsuto ingredients detected in the plasma, such as the maximum concentration (Cmax) and area under the plasma level–time curve (AUC0−last), were calculated by noncompartmental moment analysis using Phoenix WinNonlin software (Certara L.P., St. Louis, MO, USA).

The next data set has as its target T1, human TRPA1 (Homo sapiens, UniProt O75762).
T1 construct: The full length of each of human transient receptor potential ankyrin 1 (TRPA1); expressed in transfected cells
As to the kind of experiment: Ca2+ influx assay for TRP channel agonistic activity in T-REx-293 cells. Conditions: for activation at 10 µM: T-REx-293, 10 µmol/L test ingredient, positive control 20 µmol/L allyl isothiocyanate, read-out: % Activation compared to positive control, TRPA1; for Activation of TRPA1 (in words): TRP stable expression cell lines. Format: cell-based. The text has this: (§1) The full length of each of human transient receptor potential ankyrin 1 (TRPA1), transient receptor potential cation channel subfamily V member 1 (TRPV1), transient receptor potential cation channel subfamily V member 4 (TRPV4), and transient receptor potential cation channel subfamily M member 8 (TRPM8) coding region was introduced into a pcDNA4/TO vector (Thermo Fisher Scientific, Waltham, MA, USA) and transfected into T-REx-293 cells (Thermo Fisher Scientific) to obtain stable cell lines expressing human TRPA1, TRPV1, TRPV4, and TRPM8. Next, the cells were cultured in Dulbecco’s Modified Eagle Medium containing 10% fetal bovine serum (FBS), 4 mM L-glutamine, and penicillin/streptomycin.
(§2) First, cells were suspended in culture medium with 1 µg/mL of tetracycline and seeded on a poly-D-lysine-coated 96-well plate at a density of 2.5 × 10^4 cells/well overnight. Next, the cells were used for Ca^2+ influx assay, as described previously with minor modifications, using a FLIPR Calcium 5 Assay Kit (Molecular Devices, San Jose, CA, USA). Briefly, cells were incubated in 80 µL of a Ca^2+-chelating dye dissolved in assay buffer at pH 7.4 (Hanks’ Balanced Salt Solution containing 20 mmol/L of 4-(2-hydroxyethyl)-1-piperazineethanesulfonic acid [HEPES]) for 30 min at room temperature. Next, the plates were assayed in a FlexStation 3 microplate reader (Molecular Devices). The fluorescence intensity was traced entirely for 80 s, and the fluorescence baseline was measured 20 s before application of 20 µL of the test compound (final concentration = 10 µmol/L). The response was expressed as percentage activation as follows:
(§3) Relative fluorescence units (RFU) (% activation) = ([RFUmax − RFUbaseline]/RFUbaseline) × 100
(§4) The activity of each test compound against TRPA1, TRPV1, TRPV4, and TRPM8 was represented as the relative enhancement of the Ca^2+ influx of each positive control as follows: 20 µmol/L of allyl isothiocyanate (TRPA1 agonist), 2 µmol/L of capsaicin (TRPV1 agonist), 4 µmol/L of GSK1016790A (TRPV4 agonist), and 20 µmol/L of icilin (TRPM8 agonist). The dose–response curve was fitted to the sigmoidal dose–response equation (Top: maximum response of each compound), and EC50 was calculated using GraphPad prism 7 software (GraphPad, San Diego, CA, USA).
(§5) Calcium ion influx into TRPA1-, TRPV1-, TRPV4-, or TRPM8-expressing T-REx-293 cells was measured to evaluate the agonistic effect of shimotsuto ingredients on TRP channels. The action of 10 µmol/L of each test ingredient was represented as the relative enhancement of the Ca^2+ influx of each positive control, indicated as follows: 20 µmol/L each of allyl isothiocyanate (TRPA1 agonist), 2 µmol/L capsaicin (TRPV1 agonist), 4 µmol/L GSK1016790A (TRPV4 agonist), and 20 µmol/L icilin (TRPM8 agonist). Dose–response tests of shimotsuto ingredients against TRPA1 were performed to calculate EC50.

The target of the next data set is T2, human TRPM8 (Homo sapiens, UniProt Q7Z2W7).
T2 construct: The full length of each of human transient receptor potential ankyrin 1 (TRPA1); expressed in transfected cells
T2 sequence (Q7Z2W7 whole entry): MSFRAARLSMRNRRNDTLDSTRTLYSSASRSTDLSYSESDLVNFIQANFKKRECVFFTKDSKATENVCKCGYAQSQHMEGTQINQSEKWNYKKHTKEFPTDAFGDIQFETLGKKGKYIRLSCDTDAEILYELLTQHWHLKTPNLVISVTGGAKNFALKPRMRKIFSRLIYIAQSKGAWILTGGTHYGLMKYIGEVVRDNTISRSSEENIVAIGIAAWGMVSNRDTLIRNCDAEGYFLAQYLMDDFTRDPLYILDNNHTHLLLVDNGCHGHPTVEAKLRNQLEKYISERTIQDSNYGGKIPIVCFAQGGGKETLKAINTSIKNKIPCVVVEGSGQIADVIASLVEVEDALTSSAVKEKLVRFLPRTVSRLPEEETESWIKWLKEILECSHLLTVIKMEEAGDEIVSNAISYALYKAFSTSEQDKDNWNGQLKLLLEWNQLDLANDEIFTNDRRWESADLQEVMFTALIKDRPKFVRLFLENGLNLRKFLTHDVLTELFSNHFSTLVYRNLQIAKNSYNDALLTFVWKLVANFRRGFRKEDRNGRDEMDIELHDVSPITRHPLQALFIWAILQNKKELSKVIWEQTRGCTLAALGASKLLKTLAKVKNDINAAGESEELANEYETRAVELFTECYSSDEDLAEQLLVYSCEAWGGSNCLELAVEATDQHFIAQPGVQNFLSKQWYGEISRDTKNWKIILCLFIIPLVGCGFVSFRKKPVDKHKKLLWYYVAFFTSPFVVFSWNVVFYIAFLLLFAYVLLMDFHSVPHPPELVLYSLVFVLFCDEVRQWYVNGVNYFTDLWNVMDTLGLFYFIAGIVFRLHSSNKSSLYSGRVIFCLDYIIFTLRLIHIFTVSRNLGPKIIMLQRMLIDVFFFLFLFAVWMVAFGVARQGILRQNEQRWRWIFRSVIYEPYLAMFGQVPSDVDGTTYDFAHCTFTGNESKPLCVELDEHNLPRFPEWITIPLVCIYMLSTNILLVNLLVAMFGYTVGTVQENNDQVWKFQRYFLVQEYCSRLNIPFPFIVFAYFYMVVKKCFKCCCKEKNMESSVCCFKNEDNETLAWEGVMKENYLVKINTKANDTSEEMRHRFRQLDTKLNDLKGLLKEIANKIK
The data set is described as above. Format: cell-based. To be noted: 10 µmol/L test ingredient, positive control 20 µmol/L icilin, read-out: % Activation compared to positive control, TRPM8.
Excerpt: as §1, §2, §3, §4, §5

For the next data set, the target named is T3, human TRPV1 (Homo sapiens, UniProt Q8NER1).
T3 construct: The full length of each of human transient receptor potential ankyrin 1 (TRPA1), transient receptor potential cation channel subfamily V member 1 (TRPV1); expressed in transfected cells
T3 sequence (Q8NER1 whole entry): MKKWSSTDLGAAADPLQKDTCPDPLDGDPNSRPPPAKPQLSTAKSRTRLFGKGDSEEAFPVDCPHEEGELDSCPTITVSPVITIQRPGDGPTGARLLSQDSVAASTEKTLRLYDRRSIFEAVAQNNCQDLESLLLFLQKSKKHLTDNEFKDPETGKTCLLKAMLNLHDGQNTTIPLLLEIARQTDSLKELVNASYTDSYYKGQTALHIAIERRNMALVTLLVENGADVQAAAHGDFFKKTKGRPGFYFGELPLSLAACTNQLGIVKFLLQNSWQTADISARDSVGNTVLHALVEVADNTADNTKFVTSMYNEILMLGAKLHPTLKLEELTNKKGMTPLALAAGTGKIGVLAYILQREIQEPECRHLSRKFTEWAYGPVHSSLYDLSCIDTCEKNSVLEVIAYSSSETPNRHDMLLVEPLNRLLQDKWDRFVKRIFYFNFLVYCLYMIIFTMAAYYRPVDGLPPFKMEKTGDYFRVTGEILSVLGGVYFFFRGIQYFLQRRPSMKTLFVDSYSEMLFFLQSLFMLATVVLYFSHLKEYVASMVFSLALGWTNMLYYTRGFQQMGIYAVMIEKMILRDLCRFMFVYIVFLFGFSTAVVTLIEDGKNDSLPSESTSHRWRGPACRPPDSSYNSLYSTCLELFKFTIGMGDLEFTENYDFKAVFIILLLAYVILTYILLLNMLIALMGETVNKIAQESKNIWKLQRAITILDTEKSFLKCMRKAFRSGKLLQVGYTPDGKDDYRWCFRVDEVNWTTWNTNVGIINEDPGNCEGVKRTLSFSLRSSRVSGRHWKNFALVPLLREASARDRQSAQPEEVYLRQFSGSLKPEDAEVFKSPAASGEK
Described as above. To be noted: 10 µmol/L test ingredient, positive control 2 µmol/L capsaicin, read-out: % Activation compared to positive control, TRPV1. Format: cell-based.
Excerpt: as §1, §2, §3, §4, §5

For the next data set, the target named is T4, human TRPV4 (Homo sapiens, UniProt Q9HBA0).
T4 construct: The full length of each of human transient receptor potential ankyrin 1 (TRPA1); expressed in transfected cells
T4 sequence (Q9HBA0 whole entry): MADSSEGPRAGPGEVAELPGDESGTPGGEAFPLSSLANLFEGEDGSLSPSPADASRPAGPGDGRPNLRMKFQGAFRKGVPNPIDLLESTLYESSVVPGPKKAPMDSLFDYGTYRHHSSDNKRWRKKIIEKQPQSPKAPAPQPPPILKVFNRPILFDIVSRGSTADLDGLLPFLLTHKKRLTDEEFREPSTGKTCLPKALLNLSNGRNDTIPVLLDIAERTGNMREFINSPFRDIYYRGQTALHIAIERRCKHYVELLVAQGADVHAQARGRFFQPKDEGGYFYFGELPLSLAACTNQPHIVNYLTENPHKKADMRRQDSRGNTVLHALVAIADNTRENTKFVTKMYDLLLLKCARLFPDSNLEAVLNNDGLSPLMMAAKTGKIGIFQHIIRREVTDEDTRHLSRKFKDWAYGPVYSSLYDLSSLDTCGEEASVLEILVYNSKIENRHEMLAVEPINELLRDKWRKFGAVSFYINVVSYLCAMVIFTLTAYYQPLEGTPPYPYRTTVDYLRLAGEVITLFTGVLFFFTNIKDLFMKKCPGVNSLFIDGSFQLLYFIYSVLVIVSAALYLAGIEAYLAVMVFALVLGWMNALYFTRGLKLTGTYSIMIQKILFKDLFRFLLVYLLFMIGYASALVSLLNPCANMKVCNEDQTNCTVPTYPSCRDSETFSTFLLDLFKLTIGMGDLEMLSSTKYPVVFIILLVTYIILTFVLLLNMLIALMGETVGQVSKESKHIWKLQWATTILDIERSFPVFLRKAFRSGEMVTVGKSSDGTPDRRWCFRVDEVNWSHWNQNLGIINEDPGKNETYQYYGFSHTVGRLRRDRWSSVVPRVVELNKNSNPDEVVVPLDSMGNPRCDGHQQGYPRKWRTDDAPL
The data set is described as above. The format is cell-based. Conditions: 10 µmol/L test ingredient, positive control 4 µmol/L GSK1016790A, read-out: % Activation compared to positive control, TRPV4.
Excerpt: as §1, §2, §3, §4, §5

The conditions of data set [3]: cited from earlier work.
Setting [4] is: oral Angelicae Acutilobae Radix 1 g/kg.

T1 sequence (O75762 whole entry): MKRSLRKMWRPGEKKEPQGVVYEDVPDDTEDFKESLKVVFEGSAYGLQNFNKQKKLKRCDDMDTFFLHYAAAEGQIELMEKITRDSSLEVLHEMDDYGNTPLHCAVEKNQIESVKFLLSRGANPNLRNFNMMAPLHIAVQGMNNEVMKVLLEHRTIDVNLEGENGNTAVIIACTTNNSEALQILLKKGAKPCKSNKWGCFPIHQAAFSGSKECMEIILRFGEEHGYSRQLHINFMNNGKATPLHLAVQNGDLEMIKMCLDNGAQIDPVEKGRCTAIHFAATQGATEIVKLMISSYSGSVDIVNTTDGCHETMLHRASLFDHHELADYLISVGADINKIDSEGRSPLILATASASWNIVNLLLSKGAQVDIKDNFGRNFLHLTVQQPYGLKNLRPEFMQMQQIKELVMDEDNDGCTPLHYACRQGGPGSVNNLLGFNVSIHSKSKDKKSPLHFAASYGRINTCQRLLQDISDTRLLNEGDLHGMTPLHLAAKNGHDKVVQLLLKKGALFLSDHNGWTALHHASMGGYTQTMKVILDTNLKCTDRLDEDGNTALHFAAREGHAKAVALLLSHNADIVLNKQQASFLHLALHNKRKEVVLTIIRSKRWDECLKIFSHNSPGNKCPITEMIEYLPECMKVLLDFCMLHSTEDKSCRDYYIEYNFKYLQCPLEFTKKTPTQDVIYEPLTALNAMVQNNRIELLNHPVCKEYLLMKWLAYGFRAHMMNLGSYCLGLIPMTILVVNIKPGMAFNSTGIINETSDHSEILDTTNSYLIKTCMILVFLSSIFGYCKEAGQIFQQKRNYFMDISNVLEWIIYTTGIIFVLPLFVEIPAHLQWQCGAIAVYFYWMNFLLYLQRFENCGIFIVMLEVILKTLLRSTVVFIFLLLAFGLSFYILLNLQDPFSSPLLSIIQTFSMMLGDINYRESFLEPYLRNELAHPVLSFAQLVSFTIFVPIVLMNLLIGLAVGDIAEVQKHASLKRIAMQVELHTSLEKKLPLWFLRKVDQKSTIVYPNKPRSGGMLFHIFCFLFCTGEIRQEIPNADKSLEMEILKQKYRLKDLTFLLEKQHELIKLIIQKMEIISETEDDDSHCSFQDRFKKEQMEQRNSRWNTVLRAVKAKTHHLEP

With `CCCC=C1OC(=O)c2ccccc21` [3-Butylidenephthalide], in data set [1] (oral Cnidii Rhizoma 1 g/kg), the “Plasma collected 1 h postadministration (detection)” value was “++ (The number of + signs represent the sample number in which the ingredient was detected in the plasma after administration of each constituent crude drug of shimotsuto (n = 2 per sampling time per crude drug))” and the “Plasma collected 10 h postadministration (detection)” value was “Not detected”.
Take `CC12CC3(O)OC(O1)C1(CO)C3CC21OC1OC(CO)C(O)C(O)C1O` (centres unmarked) [8-Debenzoylpaeoniflorin]: the “Cmax compared to paeoniflorin” value in data set [2] (rat) is listed as “approximately tenfold”. Moreover, in data set [2] (rat, po, 1 g/kg), the AUC(0-t) is 811 ng·h/mL, the Cmax came out at 466 ng/mL and the Tmax was determined as 60 min. Further, on human TRPA1, the activation at 10 µM turned out to be 30% and the “Activation of TRPA1 (in words)” value is listed as “slightly activated”. Besides, on human TRPM8, the activation at 10 µM was determined as 2%. The activation at 10 µM on human TRPV1 was determined as 1%. For the same compound, the activation at 10 µM on human TRPV4 was 1%. Also, in data set [1] (oral Paeoniae Radix 1 g/kg), the “Plasma collected 1 h postadministration (detection)” value is “++ (The number of + signs represent the sample number in which the ingredient was detected in the plasma after administration of each constituent crude drug of shimotsuto (n = 2 per sampling time per crude drug))” and the “Plasma collected 10 h postadministration (detection)” value was “+ (The number of + signs represent the sample number in which the ingredient was detected in the plasma after administration of each constituent crude drug of shimotsuto (n = 2 per sampling time per crude drug))”.
Regarding `COc1c2ccoc2cc2oc(=O)ccc12` [Bergapten], in data set [2] (rat plasma, oral shimotsuto 1 g/kg, from mean concentration (n = 3) per time point, read-out: AUC0−last), the AUC(0-t) was 0.0105 ng·h/mL. Besides, the Cmax in data set [2] (rat plasma, oral shimotsuto 1 g/kg, from mean concentration (n = 3) per time point, read-out: Cmax) was 0.0837 ng/mL. Also, the time to peak (Tmax) in data set [2] (rat plasma, oral shimotsuto 1 g/kg, from mean concentration (n = 3) per time point, read-out: tmax) worked out at 15 min. The activation at 10 µM on human TRPA1 worked out at 3%; at human TRPM8, 0%; on human TRPV1 it was 0%; at human TRPV4, 0%. Further, the “Plasma collected 1 h postadministration (detection)” value in data set [1] (setting [4]) is “+ (The number of + signs represent the sample number in which the ingredient was detected in the plasma after administration of each constituent crude drug of shimotsuto (n = 2 per sampling time per crude drug))”. Further, in data set [1] (setting [4]), the “Plasma collected 10 h postadministration (detection)” value is given as “Not detected”.
Take `CCCCC1OC(=O)c2ccccc21` (centres unmarked) [Butylphthalide]: in data set [2] (rat, po, 1 g/kg), the AUC(0-t) was found to be 4.12 ng·h/mL. Also, the highest level in data set [2] (rat, po, 1 g/kg) (Cmax) was 13.7 ng/mL. The Tmax in data set [2] (rat, po, 1 g/kg) amounted to 30 min. Further, the activation at 10 µM at human TRPA1 was 73%; on human TRPM8, -1%; on human TRPV1, -1%; on human TRPV4 it was 0%. The “Activation of TRPA1 (in words)” value on human TRPA1 is “potently activated”. Besides, on human TRPA1 (dose–response test, Ca2+ influx, read-out: EC50 against TRPA1), the EC50 came to 3.2 µM. In addition, the “Pharmacological action related to improvement of blood and the circulatory system” value in data set [3] (ref 9) was “Vasodilation”; in data set [3] (ref 13), “vasorelaxation and increased blood flow effects”.
For the compound `O.Oc1cc(O)c2c(c1)O[C@H](c1ccc(O)c(O)c1)[C@@H](O)C2` [Catechin], in data set [1] (oral Paeoniae Radix 1 g/kg), the “Plasma collected 1 h postadministration (detection)” value is recorded as “++ (The number of + signs represent the sample number in which the ingredient was detected in the plasma after administration of each constituent crude drug of shimotsuto (n = 2 per sampling time per crude drug))” and the “Plasma collected 10 h postadministration (detection)” value is given as “Not detected”.
Regarding `COc1cc(/C=C/COC(=O)/C=C/c2ccc(O)c(OC)c2)ccc1O` [Coniferyl ferulate], in data set [1] (oral Cnidii Rhizoma 1 g/kg), the “Plasma collected 1 h postadministration (detection)” value is “++ (The number of + signs represent the sample number in which the ingredient was detected in the plasma after administration of each constituent crude drug of shimotsuto (n = 2 per sampling time per crude drug))” and the “Plasma collected 10 h postadministration (detection)” value was “+ (The number of + signs represent the sample number in which the ingredient was detected in the plasma after administration of each constituent crude drug of shimotsuto (n = 2 per sampling time per crude drug))”.
In the case of `COc1cc(O)c2c(=O)cc(C)oc2c1` [Eugenin], in data set [1] (oral Cnidii Rhizoma 1 g/kg), the “Plasma collected 1 h postadministration (detection)” value is given as “++ (The number of + signs represent the sample number in which the ingredient was detected in the plasma after administration of each constituent crude drug of shimotsuto (n = 2 per sampling time per crude drug))” and the “Plasma collected 10 h postadministration (detection)” value was “Not detected”.
For `COc1cc(/C=C/C(=O)O)ccc1O` [Ferulic acid], the AUC(0-t) in data set [2] (rat, po, 1 g/kg) was 75 ng·h/mL. In data set [2] (rat, po, 1 g/kg), this compound yielded a Cmax of 12.4 ng/mL. In data set [2] (rat, po, 1 g/kg), the Tmax stood at 15 min. Moreover, the activation at 10 µM at human TRPA1 was found to be 3%; at human TRPM8 it was 5%; at human TRPV1, 0%; on human TRPV4 it was 0%. For the same compound, the “Pharmacological action related to improvement of blood and the circulatory system” value in data set [3] (ref 14) is “Vasodilation effect [14]”.

Broadly, the Cmax is the maximum level reached in the sampled fluid or tissue. Broadly, the Tmax is the time at which the peak concentration occurs. One may read the EC50 as the concentration needed to bring the measured effect to its halfway point.
